Data: PubChem BioAssay (NCI)
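Growth conditions: 96-well plates. Treatment: test compound, 48 hours, 5 concentrations. Analysis: linear interpolation between bracketing concentrations; unreached endpoints set to highest concentration. TGI denotes the concentration required for complete inhibition of growth.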

Experiments:
Experiment in all cases: inhibition of tumour cell growth, NCI panel, 48 h
UACC-62 melanoma = test system: UACC-62 melanoma
SK-OV-3 ovarian = test system: SK-OV-3 ovarian
786-0 renal = test system: 786-0 renal
SF-539 CNS = test system: SF-539 CNS
EKVX NSCLC = test system: EKVX NSCLC
UO-31 renal = test system: UO-31 renal
HOP-62 NSCLC = test system: HOP-62 NSCLC
NCI-H23 lung = test system: NCI-H23 lung
A498 renal = test system: A498 renal
SK-MEL-28 melanoma = test system: SK-MEL-28 melanoma
MALME-3M melanoma = test system: MALME-3M melanoma
U251 CNS = test system: U251 CNS
NCI-H226 lung = test system: NCI-H226 lung
CAKI-1 renal = test system: CAKI-1 renal
HT29 colon = test system: HT29 colon
HCT-116 colon = test system: HCT-116 colon
NCI-H522 lung = test system: NCI-H522 lung
A549 NSCLC = test system: A549 NSCLC
SK-MEL-5 melanoma = test system: SK-MEL-5 melanoma
M14 melanoma = test system: M14 melanoma
KM12 colon = test system: KM12 colon
CCRF-CEM leukemia = test system: CCRF-CEM leukemia
OVCAR-3 ovarian = test system: OVCAR-3 ovarian
SK-MEL-2 melanoma = test system: SK-MEL-2 melanoma
MOLT-4 leukemia = test system: MOLT-4 leukemia
UACC-257 melanoma = test system: UACC-257 melanoma
ACHN renal = test system: ACHN renal
K-562 leukemia = test system: K-562 leukemia
MCF7 breast = test system: MCF7 breast
MDA-MB-435 = test system: MDA-MB-435
HS 578T breast = test system: HS 578T breast
BT-549 breast = test system: BT-549 breast
RXF 393 renal = test system: RXF 393 renal
TK-10 renal = test system: TK-10 renal
COLO 205 colon = test system: COLO 205 colon
OVCAR-4 ovarian = test system: OVCAR-4 ovarian
T-47D breast = test system: T-47D breast
PC-3 prostate = test system: PC-3 prostate
SF-295 CNS = test system: SF-295 CNS
SW-620 colon = test system: SW-620 colon
HCC-2998 colon = test system: HCC-2998 colon
HCT-15 colon = test system: HCT-15 colon
RPMI-8226 leukemia = test system: RPMI-8226 leukemia
SNB-19 CNS = test system: SNB-19 CNS
HOP-92 NSCLC = test system: HOP-92 NSCLC
NCI/ADR-RES ovarian = test system: NCI/ADR-RES ovarian
LOX IMVI melanoma = test system: LOX IMVI melanoma
NCI-H460 lung = test system: NCI-H460 lung
OVCAR-5 ovarian = test system: OVCAR-5 ovarian
IGROV1 ovarian = test system: IGROV1 ovarian
OVCAR-8 ovarian = test system: OVCAR-8 ovarian
SN12C renal = test system: SN12C renal
MDA-N = test system: MDA-N
SNB-75 CNS = test system: SNB-75 CNS
DU-145 prostate = test system: DU-145 prostate
SR leukemia = test system: SR leukemia
HL-60(TB) leukemia = test system: HL-60(TB) leukemia
SF-268 CNS = test system: SF-268 CNS
MDA-MB-231 breast = test system: MDA-MB-231 breast

COC(=O)C1SC(N(C)c2ccccc2)=NC12c1ccccc1Nc1ccccc12 (centres undefined)
TGI (UACC-62 melanoma): 32 µM | TGI (SK-OV-3 ovarian): > 100 µM | TGI (786-0 renal): 94 µM | TGI (SF-539 CNS): 38.6 µM | TGI (EKVX NSCLC): 66.3 µM | TGI (UO-31 renal): 52.3 µM | TGI (HOP-62 NSCLC): > 100 µM | TGI (NCI-H23 lung): 35.9 µM | TGI (A498 renal): 55.6 µM | TGI (SK-MEL-28 melanoma): 45.8 µM | TGI (MALME-3M melanoma): 30.9 µM | TGI (U251 CNS): 98.8 µM | TGI (NCI-H226 lung): 51.5 µM | TGI (CAKI-1 renal): 74.6 µM | TGI (HT29 colon): 62.2 µM | TGI (HCT-116 colon): 53.5 µM | TGI (NCI-H522 lung): 38.5 µM | TGI (A549 NSCLC): 87.8 µM | TGI (SK-MEL-5 melanoma): 26 µM | TGI (M14 melanoma): 38.7 µM | TGI (KM12 colon): 66.7 µM | TGI (CCRF-CEM leukemia): 57.7 µM | TGI (OVCAR-3 ovarian): 34.1 µM | TGI (SK-MEL-2 melanoma): 31.7 µM | TGI (MOLT-4 leukemia): 28.4 µM | TGI (UACC-257 melanoma): 64 µM | TGI (ACHN renal): > 100 µM | TGI (K-562 leukemia): 47.7 µM | TGI (MCF7 breast): 81.9 µM | TGI (MDA-MB-435): 40 µM | TGI (HS 578T breast): 53 µM | TGI (BT-549 breast): 45.1 µM | TGI (RXF 393 renal): > 100 µM | TGI (TK-10 renal): 72.5 µM | TGI (COLO 205 colon): 30.7 µM | TGI (OVCAR-4 ovarian): 73.9 µM | TGI (T-47D breast): 50 µM | TGI (PC-3 prostate): 53.9 µM | TGI (SF-295 CNS): 50.7 µM | TGI (SW-620 colon): > 100 µM | TGI (HCC-2998 colon): 42.4 µM | TGI (HCT-15 colon): 49.3 µM | TGI (RPMI-8226 leukemia): 12 µM | TGI (SNB-19 CNS): 66.1 µM | TGI (HOP-92 NSCLC): 59.4 µM | TGI (NCI/ADR-RES ovarian): 65.4 µM | TGI (LOX IMVI melanoma): 50.8 µM | TGI (NCI-H460 lung): 27 µM | TGI (OVCAR-5 ovarian): 55.2 µM | TGI (IGROV1 ovarian): 53.1 µM | TGI (OVCAR-8 ovarian): 67.6 µM | TGI (SN12C renal): 66.7 µM | TGI (MDA-N): 57 µM | TGI (SNB-75 CNS): 84.7 µM | TGI (DU-145 prostate): > 100 µM | TGI (SR leukemia): 43.3 µM | TGI (HL-60(TB) leukemia): 37.5 µM | TGI (SF-268 CNS): 72.5 µM

CCCCC1C=Cn2c(=O)oc3c(OC(C)C)c(OC(C)C)c(O)c1c32 (centres undefined)
TGI (UACC-62 melanoma): 28.8 µM | TGI (SK-OV-3 ovarian): 84.3 µM | TGI (786-0 renal): 48.6 µM | TGI (SF-539 CNS): 38.7 µM | TGI (EKVX NSCLC): 83.1 µM | TGI (UO-31 renal): 27.8 µM | TGI (HOP-62 NSCLC): 38 µM | TGI (NCI-H23 lung): 32.6 µM | TGI (A498 renal): 32.3 µM | TGI (SK-MEL-28 melanoma): 39.3 µM | TGI (U251 CNS): 29.4 µM | TGI (MDA-MB-231 breast): 33.1 µM | TGI (NCI-H226 lung): 27.5 µM | TGI (CAKI-1 renal): 37.5 µM | TGI (HT29 colon): 29.2 µM | TGI (HCT-116 colon): 34.9 µM | TGI (NCI-H522 lung): 24.7 µM | TGI (A549 NSCLC): 46.6 µM | TGI (SK-MEL-5 melanoma): 27.8 µM | TGI (M14 melanoma): 46.3 µM | TGI (KM12 colon): 27.4 µM | TGI (CCRF-CEM leukemia): 25.6 µM | TGI (OVCAR-3 ovarian): 30.6 µM | TGI (SK-MEL-2 melanoma): 37.7 µM | TGI (MOLT-4 leukemia): 27.8 µM | TGI (UACC-257 melanoma): 41.7 µM | TGI (ACHN renal): > 100 µM | TGI (MCF7 breast): 29.2 µM | TGI (MDA-MB-435): 26.8 µM | TGI (HS 578T breast): 67 µM | TGI (BT-549 breast): 34.7 µM | TGI (TK-10 renal): 31.4 µM | TGI (COLO 205 colon): 30.3 µM | TGI (OVCAR-4 ovarian): 42.8 µM | TGI (T-47D breast): 27 µM | TGI (PC-3 prostate): > 100 µM | TGI (SF-295 CNS): 40 µM | TGI (SW-620 colon): 27.2 µM | TGI (HCT-15 colon): 31.4 µM | TGI (SNB-19 CNS): 68.2 µM | TGI (HOP-92 NSCLC): 47.2 µM | TGI (LOX IMVI melanoma): 27.4 µM | TGI (NCI-H460 lung): 29.6 µM | TGI (OVCAR-5 ovarian): 34.2 µM | TGI (OVCAR-8 ovarian): 29.5 µM | TGI (SN12C renal): 49.1 µM | TGI (MDA-N): 55.5 µM | TGI (SNB-75 CNS): 47.5 µM | TGI (DU-145 prostate): 34.2 µM | TGI (HL-60(TB) leukemia): 22.8 µM | TGI (SF-268 CNS): 44.9 µM
